One series has as its target dopamine transporter (Homo sapiens, UniProt Q01959). The series can be described thus: DA uptake: displacement of dopamine ligands in vitro (methods of Gu et al.). The settings on record: DA Uptake, Uptake Profile (IC50, nM), displacement of dopamine ligands in vitro.
Series [1] addresses T1, serotonin transporter (Homo sapiens, UniProt P31645). The series can be described thus: 5-HT uptake: displacement of serotonin ligands in vitro (methods of Gu et al.). It counts as binding. The settings on record: displacement of serotonin ligands in vitro; read-out: 5-HT Uptake, Uptake Profile (IC50).
The target in series [2] is T2, norepinephrine transporter (Homo sapiens, UniProt P23975). Kind of series: Functional activity, norephinephrine uptake inhibition in MDCK cell lines. Type of series: cell-based.
In the next series the test system is rat. The series can be described thus: Acute toxicity assessment, maximum tolerated dose i.v., rat. It counts as in vivo. To be noted: rats. Here is the method: (§1) An in vivo evaluation was carried out to determine the maximum tolerated dose of numerous test compounds in two animal species (mouse and rat). The compounds were administered i.v. and the animals were then observed for 72 h. Compounds 114, 115, 113, 110, 124, 125, 129, and 130 were solubilized in 5% dextrose (w/v)/polyethylene glycol 400 (4:1 v/v). Compounds 126, 127, 131, and 132 were solubilized in 10% hydroxypropyl-β-cyclodextrin (w/v).

Series [3] concerns Sprague-Dawley rats. The series can be described thus: Spontaneous locomotor activity in rats (Example 123). It counts as in vivo, rat. To be noted: 20 mg/kg i.p., 60 minutes after administration. Here is the method:
Male Sprague-Dawley rats, (Iffa Credo, Saint-Germain/L'Arbresle, France), weighing 200-250 g at the beginning of the study, were used.
During acclimatization period, rats were housed, 2 or 3 per cage, in Makrolon type III cages, in the animal room (temperature: 20±2° C., humidity: minimum 45%, air changes:>12 per hour, light/dark cycle of 12 h/12 h [on at 7:00 A.M.]). Animals were allowed a minimum of 5 days period before experiment for acclimatization.
Rats received food (TrouwNutrition, Vigny, France) and water (tap water in water bottle) ad libitum. Rats were placed on a sawdust bedding in their cages (Goldchips, Trouw Nutrition, Vigny, France). On the day before experiments, food was withdrawn to have animals fasted overnight.
On the day of experiment, test item(s) were solubilized in 5% dextrose (w/v)/polyethylene glycol (PEG) 400 (4:1 v/v).
All test compounds were administered at 20 mg/kg as a single i.p. dose.
Twenty, 60 and 120 minutes after administration, rats were placed in a plastic box 30×30 cm in a room with low light intensity (maximum 50 lux). Locomotor activity was determined during 20 min periods using a video image analyzer (Videotrack, View Point, France). Number of occurences, distance and duration of fast and slow movements, number of occurences and duration of periods of inactivity and number of rears were measured.

Another series has as its target DAT (Homo sapiens, UniProt Q01959). Kind of series: cell-based. To be noted: hDAT cell line; read-out: DA Uptake, Functional Assays (antagonism, EC50). Further details: expressed in transfected cells.
The next series concerns mouse. The series can be described thus: Acute toxicity assessment, maximum tolerated dose i.v., mouse. Type of series: in vivo. The settings on record: mice. Here is the method: as §1
Series [4] addresses T1, serotonin transporter. Kind of series: Functional activity, serotonin uptake inhibition in human HEK-293 cell lines. It counts as cell-based. Also noted: expressed in transfected cells; host or cells: HEK-293.
Series [5] concerns the target T2, norepinephrine transporter. The series can be described thus: NE uptake: displacement of norephinephrine ligands in vitro (methods of Galli et al.). The settings on record: NE Uptake, Uptake Profile (IC50, nM). Type of series: binding.
A further series has as its system rats and monkeys. To be noted: rats; cited from earlier work.
Series [6] relates to rats. The series can be described thus: Behavioral despair assay in rats, 3 i.p. injections (Example 143). Type of series: in vivo, rat. To be noted: for % variation of the total duration of immobility: 3 i.p. injections 24 h, 5 h and 1 h before test. The source says: The objective of this study was to assess the antidepressant effects of test compounds 124, 125, 126, and 127 in the behavioral despair assay in rats according to the methods described by Porsolt R. D., Anton G., Blavet N., Jalfre M., Behavioural despair in rats: a new model sensitive to antidepressant treatment, Eur. J. Pharmacol., 1978, 47, 379-391. The animals were preconditioned in a pretest session, where the rats were individually forced to swim inside a vertical plexiglass cylinder containing water maintained at 19-20° C. After 15 minutes in the water, they were allowed to dry for 15 minutes in a heated enclosure. Twenty four hours later, they were replaced in the cylinder and the total duration of immobility was measured during a 5 minute test (test session). The test compounds and vehicle were administered as a series of 3 intraperitoneal injections 24 h, 5 h and 1 h before the 5 minute test on the second day.
(§2) The results are expressed as the percentage of variation of the total duration of immobility calculated from the mean value of the vehicle-treated group (% variation=[(immobility duration of vehicle-immobility duration of test compound)/(immobility duration of vehicle)]×100%).

Series [7] relates to Sprague-Dawley rats. Kind of series: Spontaneous locomotor activity in rats (Example 141). It counts as in vivo, rat. How it is done: The effect of 124 and 126 on spontaneous locomotor activity in rats was determined according to the procedures outlined by Silverman et al. (Motor Activity. In “Animal behavior in the laboratory”, Chapman and Hall eds, London, p. 79-92, 1978) and Boissier et al. (Arch. Int. Pharmacodyn. 1965, 158, 212. )
Test items and test item vehicles were administered to male Sprague-Dawley rats (n=10) as a single i.p. dose (vehicle A=10% hydroxypropyl-β-cyclodextrin in water; vehicle B=4:1 5% aqueous dextrose:PEG 400). […] Locomotor activity was determined during 20 minute periods using video image analyzers. Images recorded with video cameras were digitalized and displacements of the center of gravity of the digital image spot were tracked and analyzed. When the speed of displacement of the center of gravity of the spot was below 4.26 cm/sec, the movement was considered as inactivity. When this speed was between 4.26 and 6.75 cm/sec, the movement was considered as a small movement. When this speed was above 6.75 cm/sec, the movement was considered as a large movement. The number of occurrences, distance and duration of fast and slow movements, number of occurrences and duration of periods of inactivity and number of rears were measured.

The subject of series [8] is Sprague-Dawley rats. Kind of series: Spontaneous locomotor activity in rats, 1-24 hours (Example 223). Type of series: in vivo, rat. The settings on record: 10 mg/kg i.p. How it is done:
The effect of 124 and 126 on spontaneous locomotor activity in rats was determined according to the procedures outlined by Silverman et al. (Motor Activity. In “Animal behavior in the laboratory”, Chapman and Hall eds, London, p. 79-92, 1978) and Boissier et al. (Arch. Int. Pharmacodyn. 1965, 158, 212. ) Test items and test item vehicles were administered to male Sprague-Dawley rats (n=10) as a single i.p. dose. One, three, five, eight and twenty four hours following administration, rats were placed in a plastic box 30×30 cm in a room with low light intensity (maximum 50 lux). Locomotor activity was determined during 20 minute periods using video image analyzers. Images recorded with video cameras were digitalized and displacements of the center of gravity of the digital image spot were tracked and analyzed. When the speed of displacement of the center of gravity of the spot was below 4.26 cm/sec, the movement was considered as inactivity. When this speed was between 4.26 and 6.75 cm/sec, the movement was considered as a small movement. When this speed was above 6.75 cm/sec, the movement was considered as a large movement. The number of occurrences, distance and duration of fast and slow movements, number of occurrences and duration of periods of inactivity and number of rears were measured.

Series [9] deals with rats. Type of series: in vivo, rat. To be noted: for % variation of the total duration of immobility: 1 h before test. Here is the method:
The animals were preconditioned in a pretest session, where the rats were individually forced to swim inside a vertical plexiglass cylinder containing water maintained at 19-20° C. […] Twenty four hours later, the compounds were administered intraperitoneal to the animals. One hour after administration of the test compound, animals were put back into the cylinder containing water. The total duration of immobility was measured during the last 4 minutes of a 6 minute test.
as §2

Structures are written as SMILES. Read-outs that look alike come from different tables or passages of the source. Bounds are passed on as bounds.

T1 sequence (P31645 whole entry): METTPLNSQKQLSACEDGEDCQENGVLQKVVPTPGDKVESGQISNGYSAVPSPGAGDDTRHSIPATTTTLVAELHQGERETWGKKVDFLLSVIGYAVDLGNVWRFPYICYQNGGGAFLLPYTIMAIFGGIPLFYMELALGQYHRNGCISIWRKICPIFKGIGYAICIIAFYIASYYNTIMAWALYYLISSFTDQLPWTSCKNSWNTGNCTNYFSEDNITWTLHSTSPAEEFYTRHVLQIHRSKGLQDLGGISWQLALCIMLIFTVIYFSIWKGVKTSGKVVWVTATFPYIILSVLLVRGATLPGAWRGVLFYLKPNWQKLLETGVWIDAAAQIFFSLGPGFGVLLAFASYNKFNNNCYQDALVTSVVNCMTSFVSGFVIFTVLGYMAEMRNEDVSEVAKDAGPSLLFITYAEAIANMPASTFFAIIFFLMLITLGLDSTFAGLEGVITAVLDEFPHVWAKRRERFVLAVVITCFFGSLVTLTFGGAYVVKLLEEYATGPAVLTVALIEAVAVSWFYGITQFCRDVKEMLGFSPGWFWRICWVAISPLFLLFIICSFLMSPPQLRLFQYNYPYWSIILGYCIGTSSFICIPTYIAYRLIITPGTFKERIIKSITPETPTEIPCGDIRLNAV
T2 sequence (P23975 whole entry): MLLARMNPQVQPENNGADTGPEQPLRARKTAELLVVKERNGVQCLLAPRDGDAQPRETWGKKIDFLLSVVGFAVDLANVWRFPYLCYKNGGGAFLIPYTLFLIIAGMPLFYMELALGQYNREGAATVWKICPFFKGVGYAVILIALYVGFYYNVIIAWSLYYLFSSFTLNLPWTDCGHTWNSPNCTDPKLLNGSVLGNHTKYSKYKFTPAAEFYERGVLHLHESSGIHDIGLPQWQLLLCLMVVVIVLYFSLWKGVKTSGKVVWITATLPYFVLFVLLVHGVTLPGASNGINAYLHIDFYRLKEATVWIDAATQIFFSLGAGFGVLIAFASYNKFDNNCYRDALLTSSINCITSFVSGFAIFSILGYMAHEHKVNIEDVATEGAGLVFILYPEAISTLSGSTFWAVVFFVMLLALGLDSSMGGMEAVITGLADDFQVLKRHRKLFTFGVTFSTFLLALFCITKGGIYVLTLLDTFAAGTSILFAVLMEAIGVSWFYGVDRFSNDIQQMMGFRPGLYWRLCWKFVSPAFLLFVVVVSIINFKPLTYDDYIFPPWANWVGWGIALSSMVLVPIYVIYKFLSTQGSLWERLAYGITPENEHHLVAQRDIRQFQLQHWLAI
Chain of DAT (Q01959 whole entry): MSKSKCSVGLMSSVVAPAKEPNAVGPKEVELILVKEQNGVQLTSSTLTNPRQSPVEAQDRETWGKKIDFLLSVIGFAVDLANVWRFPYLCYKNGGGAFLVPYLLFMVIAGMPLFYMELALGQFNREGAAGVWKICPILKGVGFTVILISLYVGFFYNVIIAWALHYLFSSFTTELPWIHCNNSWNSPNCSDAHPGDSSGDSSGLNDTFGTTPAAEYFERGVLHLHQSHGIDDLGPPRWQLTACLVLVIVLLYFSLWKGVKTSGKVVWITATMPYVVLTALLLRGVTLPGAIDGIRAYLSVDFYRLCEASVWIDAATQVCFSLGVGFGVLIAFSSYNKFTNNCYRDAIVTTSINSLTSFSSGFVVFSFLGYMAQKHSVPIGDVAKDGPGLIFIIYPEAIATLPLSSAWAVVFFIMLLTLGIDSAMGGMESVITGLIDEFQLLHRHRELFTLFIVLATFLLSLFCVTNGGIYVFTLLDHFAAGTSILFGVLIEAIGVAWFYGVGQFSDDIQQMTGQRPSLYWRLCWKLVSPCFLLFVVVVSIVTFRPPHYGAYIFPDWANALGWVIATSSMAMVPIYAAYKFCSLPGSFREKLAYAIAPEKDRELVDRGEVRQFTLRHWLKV
Chain of dopamine transporter (Q01959 whole entry): as above

As usually defined, the IC50 is the midpoint of a concentration-inhibition curve. For orientation: EC50 means the concentration at which the effect is half-maximal. As to `Clc1ccc(C2(CN3CCC[C@@H](COc4ccc5c(c4)OCO5)C3)CCC2)cc1` [compound 110, (R)-3-(Benzo[1,3]dioxol-5-yloxymethyl)-1-[1-(4-chloro-phenyl)-cyclobutylmethyl]-piperidine], the IC50 was under 100 nM on dopamine transporter, under 1 µM on serotonin transporter [1] and under 1000 nM in series [5]. Besides, the EC50 in series [2] was under 1 µM; on DAT, under 0.01 µM; on serotonin transporter [4] (5-HT Uptake, Functional Assays (antagonism, EC50, nM)), over 1000 nM. Besides, the “tolerability and mortality after 72 h” value in the series with rat (30 mg/kg i.v.) and in the series on mouse (30 mg/kg i.v.) was “well tolerated” in each case. The “locomotor activity compared to control animals” value with Sprague-Dawley rats [3] was “significant increase”.
Consider `CNCCC(Oc1ccc(C(F)(F)F)cc1)c1ccccc1` (centres unmarked) [fluoxetine], for which, in the series on rats and monkeys, the “effect on self-administration of cocaine” value is listed as “decreased self-administration of cocaine”.
Consider `O[C@H](CN1CCC[C@@H](COc2ccc(C(F)(F)F)cc2)C1)C1(c2ccc(Cl)cc2)CCC1` [compound 126, 1R-1-[1-(4-Chloro-phenyl)-cyclobutyl]-2-[(3R)-3-(4-trifluoromethyl-phenoxymethyl)-piperidin-1-yl]-ethanol], for which the IC50 at dopamine transporter is under 10 nM; at serotonin transporter [1] it was under 1 µM; in series [5] it was under 100 nM. Also, the “% variation of the total duration of immobility” value with rats [6] (0.25 mg/kg) is recorded as 9%; in the series on rats [6] (0.75 mg/kg) it was 47%; in the series with rats [6] (1.0 mg/kg), 58%; with rats [6] (2.5 mg/kg) it was 76%; in the series on rats [9] (2.5 mg/kg i.p.) it was 45%; in the series with rats [9] (10 mg/kg i.p.), 99%. The “effectiveness (statistically significant variation >30%)” value in the series on rats [6] (1.0 mg/kg), in the series on rats [6] (2.5 mg/kg) and in the series with rats [9] (2.5 mg/kg) was “effective” throughout. Further, the EC50 is under 1 µM in [2]; under 0.01 µM at DAT; under 1000 nM at serotonin transporter [4] (human HEK-293 cell lines, read-out: 5-HT Uptake, Functional Assays (antagonism, EC50)). The “Small Movement Occurrences” value with Sprague-Dawley rats [7] (5 mg/kg i.p.) is reported as 651.4 ± 141.2; with Sprague-Dawley rats [7] (5 mg/kg i.p., 20 min), 711.6 ± 65.7 ^; with Sprague-Dawley rats [7] (5 mg/kg i.p., 60 min) it was 563.5 ± 85.0 ^; in the series with Sprague-Dawley rats [7] (5 mg/kg i.p., 120 min) it was 717.4 ± 138.6; in the series with Sprague-Dawley rats [7] (10 mg/kg i.p., 20 min), 904.3 ± 110.8; with Sprague-Dawley rats [7] (10 mg/kg i.p., 60 min), 1218.7 ± 178.9 ^. In addition, the “Small Movement Occurrences” value in the series on Sprague-Dawley rats [7] (10 mg/kg i.p., 120 min) is listed as 1358.1 ± 137.1 ^; in the series on Sprague-Dawley rats [8] (1 hour), 1357 ± 125^; with Sprague-Dawley rats [8] (3 hours), 1610 ± 73 ^; in the series on Sprague-Dawley rats [8] (5 hours), 1575 ± 90 ^; with Sprague-Dawley rats [8] (8 hours), 1489 ± 111^; in the series with Sprague-Dawley rats [8] (24 hours), 1544 ± 75 ^. The “Large Movement Occurrences” value was 287.0 ± 34.4 ^ in the series on Sprague-Dawley rats [7] (5 mg/kg i.p., 20 min); 204.4 ± 36.3 ^ in the series with Sprague-Dawley rats [7] (5 mg/kg i.p., 60 min); 293.8 ± 68.9 ^ in the series on Sprague-Dawley rats [7] (5 mg/kg i.p., 120 min); 270.5 ± 73.8 ^ in the series with Sprague-Dawley rats [7] (5 mg/kg i.p., 180 min); 364.7 ± 52.7 ^ with Sprague-Dawley rats [7] (10 mg/kg i.p., 20 min); 644.5 ± 127.3 with Sprague-Dawley rats [7] (10 mg/kg i.p., 60 min). In addition, the “Large Movement Occurrences” value in the series with Sprague-Dawley rats [7] (10 mg/kg i.p., 120 min) is recorded as 752.7 ± 129.4; in the series on Sprague-Dawley rats [8] (1 hour), 774 ± 110 ^; with Sprague-Dawley rats [8] (3 hours), 956 ± 93^; in the series on Sprague-Dawley rats [8] (5 hours) it was 866 ± 117 ^; in the series with Sprague-Dawley rats [8] (8 hours), 746 ± 95^; in the series on Sprague-Dawley rats [8] (24 hours), 1012 ± 81 ^. For the same compound, the “locomotor activity compared to control animals” value in the series with Sprague-Dawley rats [7] (dosed at 5 and 10 mg/kg i.p.) is “significant increase”; with Sprague-Dawley rats [8] (at all times tested (1, 3, 5, 8, 24 hours)), “significant increase”. Moreover, the “tolerability and mortality after 72 h” value with rat (10 mg/kg i.v.) and in the series on mouse (10 mg/kg i.v.) was “well tolerated” in each case.

The values are drawn from patent publication US7294637B2 (Sepracor, Inc., priority 2000, dated 2007).
